Assay results: PubChem BioAssay AID208 (DTP/NCI, 2004)
Values joined by “and” are separate entries in the source; they are usually repeats but may differ in a detail not shown here. Equal entries are not always repeated. Results filed as inconclusive are left out.

Test system: HT29 intrarenal xenograft, nude mice, tumor weight change
Test: NCI In Vivo Anticancer Drug Screen. Data for tumor model HT29;CX-1 Human Adenocarcinoma (MER+) (intrarenal inoculation) in NU/NU BALB/C (nude) mice
Settings: endpoint: mean tumor weight change, higher = larger tumour
Method: The antitumor activity of compounds was measured in mice bearing transplantable tumors. Survival or tumor size were measured and the results are expressed as the measurement made in the treated group (T) divided by the measurement made in the vehicle treated control group (C). The tumor model used in this assay is HT29;CX-1 Human Adenocarcinoma (MER+) (intrarenal inoculation) in NU/NU BALB/C (nude) mice

[1] = dose: 100.0 mg/kg/injection, schedule: Q01DX010 (sc), vehicle: saline
[2] = dose: 150.0 mg/kg/injection, schedule: Q04DX004 (ip), vehicle: saline

With `COc1cc2c3c(cccc3c1)C(=O)N(CCN(C)C)C2=O` the T/C (dose: 37.5 mg/kg/injection, schedule: Q04DX004 (sc), vehicle: saline with Tween-80) was 72 % of control, the T/C (dose: 75.0 mg/kg/injection, schedule: Q04DX004 (sc), vehicle: saline with Tween-80) was 98 % of control and the T/C (dose: 150.0 mg/kg/injection, schedule: Q04DX004 (sc), vehicle: saline with Tween-80) was 74 % of control. The T/C (dose: 300.0 mg/kg/injection, schedule: Q04DX004 (sc), vehicle: saline with Tween-80) was 105 % of control.

In the case of `CN(CO)c1nc(N(C)CO)nc(N(C)CO)n1`, the T/C (dose: 6.25 mg/kg/injection, schedule: Q01DX010 (sc), vehicle: saline) is reported as 100 % of control, the T/C (dose: 25.0 mg/kg/injection, schedule: Q01DX010 (sc), vehicle: saline) is reported as 92 % of control and the T/C [1] is reported as 6 % of control.

`c1ccc2c(c1)[As]=c1ccccc1=[As]2` (centres undefined) was tested, and the T/C (dose: 9.38 mg/kg/injection, schedule: Q04DX004 (sc), vehicle: saline) was 113 % of control, the T/C (dose: 18.72 mg/kg/injection, schedule: Q04DX004 (sc), vehicle: saline) was 86 % of control and the T/C (dose: 37.5 mg/kg/injection, schedule: Q04DX004 (sc), vehicle: saline) was 107 % of control. The T/C (dose: 75.0 mg/kg/injection, schedule: Q04DX004 (sc), vehicle: saline) was 70 % of control.

For `CN(C)/N=N/c1nc[nH]c1C(N)=O`, the T/C (dose: 100.0 mg/kg/injection, schedule: Q04DX004 (ip), vehicle: saline) was 157 % of control and the T/C [2] was 75 % of control.

In the case of `CO[C@H]1C[C@](C)(O)Cc2cc3c(c(O)c21)C(=O)c1c(O)cc2c(c1C3=O)O[C@@H]1O[C@@]2(C)[C@H](O)[C@@H](N(C)C)[C@@H]1O`, the T/C (dose: 6.25 mg/kg/injection, schedule: Q01DX010 (sc), vehicle: other) is reported as 65 % of control and the T/C (dose: 12.5 mg/kg/injection, schedule: Q01DX010 (sc), vehicle: other) is reported as 76 % of control.

In the case of `COc1cc2cc(c1Cl)N(C)C(=O)C[C@H](OC(=O)[C@H](C)N(C)C(C)=O)[C@]1(C)O[C@H]1[C@H](C)[C@@H]1C[C@@](O)(NC(=O)O1)[C@H](OC)C=C/C=C(\C)C2`, the T/C (dose: 25.0 micrograms/kg/injection, schedule: Q01DX010 (sc), vehicle: Klucel (hydroxypropylcellulose) (HPC)) is reported as 315 % of control and the T/C (dose: 50.0 micrograms/kg/injection, schedule: Q01DX010 (sc), vehicle: Klucel (hydroxypropylcellulose) (HPC)) is reported as 118 % of control and 310 % of control.

With `c1ccc2c(c1)nnn1c3cnccc3nc21` the T/C (dose: 50.0 mg/kg/injection, schedule: Q01DX010 (sc), vehicle: saline with Tween-80) was 246 % of control and the T/C (dose: 100.0 mg/kg/injection, schedule: Q01DX010 (sc), vehicle: saline with Tween-80) was 65 % of control.

`C=CS(=O)(=O)c1ccccc1` was tested, and the T/C (dose: 50.0 mg/kg/injection, schedule: Q01DX010 (sc), vehicle: saline) was 49 % of control and the T/C [1] was 82 % of control.

For `O=C(C/C(=N\C(=S)Nc1cc(C(F)(F)F)ccc1Cl)NO)N1CCCC1`, the T/C (dose: 600.0 mg/kg/injection, schedule: Q04DX003 (sc), vehicle: saline with Tween-80) was 114 % of control and the T/C (dose: 1200.0 mg/kg/injection, schedule: Q04DX003 (sc), vehicle: saline with Tween-80) was 88 % of control.

`Nc1nc(=S)c2ncn(C3CC(O)C(CO)O3)c2[nH]1` (centres undefined) was tested, and the T/C (dose: 1.88 mg/kg/injection, schedule: Q01DX010 (sc), vehicle: saline with Tween-80) was 164 % of control.

For `O=CC(O)C(O)C(O)C(O)CO` (centres undefined), the T/C (dose: 75.0 mg/kg/injection, schedule: Q04DX004 (ip), vehicle: saline) was 195 % of control, the T/C [2] was 164 % of control and the T/C (dose: 600.0 mg/kg/injection, schedule: Q04DX004 (ip), vehicle: saline) was 164 % of control.

In the case of `CO[C@@]12[C@H](COC(N)=O)C3=C(C(=O)C(C)=C(N)C3=O)N1C[C@@H]1N[C@@H]12`, the T/C (dose: 1.5 mg/kg/injection, schedule: Q04DX004 (sc), vehicle: saline) is reported as 47 % of control and 52 % of control and 71 % of control, the T/C (dose: 3.0 mg/kg/injection, schedule: Q04DX004 (sc), vehicle: saline) is reported as -35 % of control and -23 % of control and -13 % of control and the T/C (dose: 6.0 mg/kg/injection, schedule: Q04DX004 (sc), vehicle: saline) is reported as -86 % of control.

`Cc1cc(NCCCCCCCCNc2cc(C)nc3cc(N(C)C)ccc23)c2ccc(N(C)C)cc2n1` was tested, and the T/C (dose: 75.0 mg/kg/injection, schedule: Q04DX004 (sc), vehicle: distilled water + Tween-80 + alcohol) was 84 % of control, the T/C (dose: 150.0 mg/kg/injection, schedule: Q04DX004 (sc), vehicle: distilled water + Tween-80 + alcohol) was 62 % of control and the T/C (dose: 300.0 mg/kg/injection, schedule: Q04DX004 (sc), vehicle: distilled water + Tween-80 + alcohol) was 85 % of control. For the same molecule, the T/C (dose: 600.0 mg/kg/injection, schedule: Q04DX004 (sc), vehicle: distilled water + Tween-80 + alcohol) was 35 % of control.
